Columns and labels:
Type in all cases: cell-based
[1] = test system: SW626; assay: Cell growth inhibition assay, ovarian cancer cell line SW626; details: Homo sapiens
Experimental: (§1) The inhibitory effects of the compounds of the present invention against the growth of cancer cells were evaluated as shown below. The cancer cell lines including stomach cancer cell line (AGS), breast cancer cell lines (MDA-MB-231, MDA-MB-468, and BT-549), prostate cancer cell lines (LNCaP and DU-145), colon cancer cell line (HCT116), ovarian cancer cell line (SW626), liver cancer cell line (Hep3B), kidney cancer cell line (ACHN), lung cancer cell line (NCI-H23) and blood cancer cell lines (HEL92.1.7 and U266) were cultured under the protocol provided by each supplier. A medium supplemented with 10 ng/mL of IL-6 was used for LNCaP, a prostate cancer cell line, when treated with a drug. Each type of cells to be used in experiments were sub-cultured in a 96-well plate by counting the exact number of cells using Tali™ Image-based Cytometer (Life Technologies). In a 96-well plate, AGS, HCT116, and DU-145 were employed with 3,000 cells/well; NCI-H23, SW626, Hep3B, ACHN, BT-549, MDA-MB-231, HEL92.1.7, and U266 were employed with 5,000 cells/well; and LNCaP and MDA-MB-468 were employed with 10,000 cells/well. The cells were treated with the compounds listed in Examples which were diluted in various concentrations. Upon completion of the compounds treatment, AGS, HCT116, SW626, DU145, NCI-H23, Hep3B, ACHN, BT-549, LNCaP, HEL92.1.7, and U266 cells were cultured at 37° C. under 5% CO2 for from 72 to 96 hours, and MDA-MB-231 and MDA-MB-468 cells were cultured at 37° C. in air for from 72 to 96 hours. Subsequently, the cells were observed under microscope and drug precipitation and particular findings were investigated and recorded. And then, the 96-well plate was placed at room temperature for 30 minutes, added with 20 μL/well of CellTiter-Glo solution (Cat No. G7573, Promega) and shaken for 10 minutes, followed by being subjected to the measurement using PHERAstar™ microplate reader (BMG LABTECH) according to the supplier's general luminometer protocol. […]

[2] = test system: Hep3B; assay: Cell growth inhibition assay, liver cancer cell line Hep3B; details: Homo sapiens
Experimental: (§2) The inhibitory effects of the compounds of the present invention against the growth of cancer cells were evaluated as shown below. The cancer cell lines including stomach cancer cell line (AGS), breast cancer cell lines (MDA-MB-231, MDA-MB-468, and BT-549), prostate cancer cell lines (LNCaP and DU-145), colon cancer cell line (HCT116), ovarian cancer cell line (SW626), liver cancer cell line (Hep3B), kidney cancer cell line (ACHN), lung cancer cell line (NCI-H23) and blood cancer cell lines (HEL92.1.7 and U266) were cultured under the protocol provided by each supplier. A medium supplemented with 10 ng/mL of IL-6 was used for LNCaP, a prostate cancer cell line, when treated with a drug. Each type of cells to be used in experiments were sub-cultured in a 96-well plate by counting the exact number of cells using Tali™ Image-based Cytometer (Life Technologies). In a 96-well plate, AGS, HCT116, and DU-145 were employed with 3,000 cells/well; NCI-H23, SW626, Hep3B, ACHN, BT-549, MDA-MB-231, HEL92.1.7, and U266 were employed with 5,000 cells/well; and LNCaP and MDA-MB-468 were employed with 10,000 cells/well. The cells were treated with the compounds listed in Examples which were diluted in various concentrations. Upon completion of the compounds treatment, AGS, HCT116, SW626, DU145, NCI-H23, Hep3B, ACHN, BT-549, LNCaP, HEL92.1.7, and U266 cells were cultured at 37° C. under 5% CO2 for from 72 to 96 hours, and MDA-MB-231 and MDA-MB-468 cells were cultured at 37° C. in air for from 72 to 96 hours. Subsequently, the cells were observed under microscope and drug precipitation and particular findings were investigated and recorded. And then, the 96-well plate was placed at room temperature for 30 minutes, added with 20 μL/well of CellTiter-Glo solution (Cat No. G7573, Promega) and shaken for 10 minutes, followed by being subjected to the measurement using PHERAstar™ microplate reader (BMG LABTECH) according to the supplier's general luminometer protocol. Wells where only culture liquid added without cell plating were used as a negative control, whereas wells where culture liquid containing 0.1% DMSO instead of the compounds listed in Examples were used as a positive control.

[3] = test system: ACHN; assay: Cell growth inhibition assay, kidney cancer cell line ACHN; details: Homo sapiens
Experimental: as §1

[4] = test system: AGS; assay: Cell growth inhibition assay, stomach cancer cell line AGS; details: Homo sapiens; AGS stomach cancer cell line, 3,000 cells/well
[5] = test system: DU-145; assay: Cell growth inhibition assay, prostate cancer cell line DU-145; details: Homo sapiens, DU-145 prostate cancer cell line
Procedure, shortened: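 DU-145 and HCT116 cells were plated at 3,000 cells/well and SW626 at 5,000 cells/well, then treated with serially diluted compounds. After 72 to 96 hours at 37° C. under 5% CO2, viability was read by CellTiter-Glo luminescence against cell-free medium wells and 0.1% DMSO wells.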

[6] = test system: U266; assay: Cell growth inhibition assay, blood cancer cell line U266; details: Homo sapiens, U-266 blood cancer cell line
Experimental: as §2

[7] = test system: LNCaP; assay: Cell growth inhibition assay, prostate cancer cell line LNCaP (medium with 10 ng/mL IL-6); details: Homo sapiens, medium supplemented with 10 ng/mL of IL-6, 10,000 cells/well
[8] = test system: HEL92.1.7; assay: Cell growth inhibition assay, blood cancer cell line HEL92.1.7; details: Homo sapiens, HEL 92.1.7, HEL92.1.7 blood cancer cell line
Procedure, shortened: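 Cells were seeded at 3,000/well (HCT116, DU-145) or 5,000/well (SW626 and the others) and exposed to serial compound dilutions for 72 to 96 h at 37 °C under 5% CO2. Viability was read as CellTiter-Glo luminescence against 0.1% DMSO and cell-free wells.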

[9] = test system: HCT116; assay: Cell growth inhibition assay, colon cancer cell line HCT116; details: Homo sapiens, HCT-116 colon cancer cell line
Experimental: as §1

[10] = test system: BT-549; assay: Cell growth inhibition assay, breast cancer cell line BT-549; details: Homo sapiens, BT-549 breast cancer cell line
Experimental: as §2

[11] = test system: MDA-MB-231; assay: Cell growth inhibition assay, breast cancer cell line MDA-MB-231; details: Homo sapiens; MDA-MB-231 breast cancer cell line, 5,000 cells/well
[12] = test system: MDA-MB-468; assay: Cell growth inhibition assay, breast cancer cell line MDA-MB-468; details: Homo sapiens, MDA-MB-468 breast cancer cell line
Experimental: as §2

[13] = biological target: T1, STAT3 (Homo sapiens, UniProt P40763); assay: STAT3 reporter gene assay (luciferase), LNCaP stable cell line (pSTAT3-TA-luc), IL-6 stimulation
T1 construct: plasmid pSTAT3-TA-luc), which contains a stably operating STAT3 promoter; endogenous in cells
T1 sequence (P40763 whole entry): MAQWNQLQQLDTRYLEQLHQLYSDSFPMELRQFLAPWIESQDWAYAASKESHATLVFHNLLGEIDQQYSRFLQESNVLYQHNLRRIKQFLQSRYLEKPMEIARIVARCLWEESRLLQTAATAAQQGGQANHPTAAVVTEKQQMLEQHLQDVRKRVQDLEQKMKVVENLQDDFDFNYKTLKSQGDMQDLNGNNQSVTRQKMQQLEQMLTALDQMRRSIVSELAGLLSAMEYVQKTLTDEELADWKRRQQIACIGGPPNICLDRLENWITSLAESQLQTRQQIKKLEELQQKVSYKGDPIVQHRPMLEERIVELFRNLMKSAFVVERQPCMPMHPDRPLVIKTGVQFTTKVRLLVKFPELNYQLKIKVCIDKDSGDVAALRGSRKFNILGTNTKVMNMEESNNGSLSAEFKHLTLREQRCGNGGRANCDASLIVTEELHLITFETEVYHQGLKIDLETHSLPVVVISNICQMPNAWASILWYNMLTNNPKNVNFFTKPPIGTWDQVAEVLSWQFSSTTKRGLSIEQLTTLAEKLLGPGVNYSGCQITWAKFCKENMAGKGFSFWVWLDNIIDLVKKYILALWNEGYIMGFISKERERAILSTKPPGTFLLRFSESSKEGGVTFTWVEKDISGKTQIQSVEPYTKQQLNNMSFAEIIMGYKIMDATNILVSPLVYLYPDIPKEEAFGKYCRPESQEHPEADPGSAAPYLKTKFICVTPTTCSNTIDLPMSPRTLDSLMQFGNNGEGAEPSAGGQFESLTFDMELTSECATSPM
Procedure, shortened: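 Cytotoxicity was run on a duplicate plate with CellTiter-Glo, while the other plate gave luciferase read-outs from lysed LNCaP pSTAT3-TA-luc reporter cells. Cells were treated with graded compound concentrations plus IL-6 (10 ng/mL final) for 24–48 h in 3% DCC-FBS medium. Unstimulated and stimulated wells served as negative and positive controls.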

[14] = test system: NCI-H23; assay: Cell growth inhibition assay, lung cancer cell line NCI-H23; details: Homo sapiens
Experimental: as §1

SMILES | IC50 [1] | IC50 [2] | IC50 [3] | IC50 [4] | IC50 [5] | IC50 [6] | IC50 [7] | IC50 [8] | IC50 [9] | IC50 [10] | IC50 [11] | IC50 [12] | IC50 [13] | IC50 [14]
CCOc1cc(OC(F)(F)F)cc(C(C)(C)c2cc(Br)cc(NC(=O)c3cc4ccc(NS(C)(=O)=O)cc4[nH]3)c2)c1 [Example 22, N-(3-bromo-5-(2-(3-ethoxy-5-(trifluoromethoxy)phenyl)propan-2-yl)phenyl)-6-(methylsulfonamido)-1H-indole-2-carboxamide] | – | – | – | – | 0.048 µM | 0.13 µM | 0.29 µM | 0.13 µM | – | – | 0.007 µM | – | 0.11 µM | –
COc1cc(OC(F)(F)F)cc(C(C)(C)c2cc(Cl)cc(NC(=O)c3cc4ccc(NS(C)(=O)=O)cc4[nH]3)c2)c1 [Example 24, N-(3-chloro-5-(2-(3-methoxy-5-(trifluoromethoxy)phenyl)propan-2-yl)phenyl)-6-(methylsulfonamido)-1H-indole-2-carboxamide] | – | – | – | – | 0.044 µM | 0.13 µM | 0.083 µM | 0.12 µM | – | – | 0.027 µM | – | 0.051 µM | –
CC(C)(c1cccc(CN2CCOCC2)c1)c1cc(Br)cc(NC(=O)c2cc3cc(NS(C)(=O)=O)ccc3s2)c1 [Example 50, N-(3-bromo-5-(2-(3-(morpholinomethyl)phenyl)propan-2-yl)phenyl)-5-(methylsulfonamido)benzo[b]thiophene-2-carboxamide] | – | – | – | – | 0.36 µM | 0.84 µM | 0.76 µM | 0.83 µM | – | – | 0.24 µM | – | 0.15 µM | –
COc1cc(OC(F)(F)F)cc(C(C)(C)c2cc(Br)cc(NC(=O)c3cc4cnc(NS(C)(=O)=O)cc4[nH]3)c2)c1 [Example 98, N-(3-bromo-5-(2-(3-methoxy-5-(trifluoromethoxy)phenyl)propan-2-yl)phenyl)-6-(methylsulfonamido)-1H-pyrrolo[3,2-c]pyridine-2-carboxamide] | – | – | – | – | 0.31 µM | 0.56 µM | 0.76 µM | 0.86 µM | – | – | 0.59 µM | – | 0.098 µM | –
CC(C)(C)OC(=O)N1CCN(Cc2cccc(C(C)(C)c3cc(Br)cc(NC(=O)c4cc5cc(NS(C)(=O)=O)ccc5s4)c3)c2)CC1 [Example 116, tert-butyl 4-(3-(2-(3-bromo-5-(5-(methylsulfonamido)benzo[b]thiophene-2-carboxamido)phenyl)propan-2-yl)benzyl)piperazine-1-carboxylate] | – | – | – | – | 0.058 µM | 0.16 µM | 0.22 µM | 0.13 µM | – | – | 0.055 µM | – | 0.053 µM | –

Compounds with a lower IC50 [5], results first:

IC50 [1] | IC50 [2] | IC50 [3] | IC50 [4] | IC50 [5] | IC50 [6] | IC50 [7] | IC50 [8] | IC50 [9] | IC50 [10] | IC50 [11] | IC50 [12] | IC50 [13] | IC50 [14] | SMILES
0.066 µM | 2.1 µM | 0.004 µM | 0.044 µM | 0.024 µM | 0.25 µM | 0.48 µM | 0.14 µM | 0.31 µM | 0.26 µM | 0.025 µM | 0.02 µM | 0.112 µM | 0.3 µM | COc1cc(OC(F)(F)F)cc(C(C)(C)c2cc(Br)cc(NC(=O)c3cc4ccc(NS(C)(=O)=O)cc4[nH]3)c2)c1 [Example 16, N-(3-bromo-5-(2-(3-methoxy-5-(trifluoromethoxy)phenyl)propan-2-yl)phenyl)-6-(methylsulfonamido)-1H-indole-2-carboxamide]
– | 0.028 µM | – | – | 0.023 µM | 0.29 µM | 0.24 µM | 0.2 µM | – | 3.4 µM | 0.007 µM | < 0.00064 µM | 0.051 µM | – | COc1cc(NC(=O)c2cc3cc(NS(C)(=O)=O)ccc3s2)cc(C(C)(C)c2cc(OC)cc(OC(F)(F)F)c2)c1 [Example 34, N-(3-methoxy-5-(2-(3-methoxy-5-(trifluoromethoxy)phenyl)propan-2-yl)phenyl)-5-(methylsulfonamido)benzo[b]thiophene-2-carboxamide]
– | – | – | – | 0.009 µM | 0.023 µM | 0.032 µM | 0.044 µM | – | – | 0.005 µM | – | 0.007 µM | – | COc1cc(OC(F)(F)F)cc(C(C)(C)c2cc(Cl)cc(NC(=O)c3cc4cc(NS(C)(=O)=O)ccc4s3)c2)c1 [Example 42, N-(3-chloro-5-(2-(3-methoxy-5-(trifluoromethoxy)phenyl)propan-2-yl)phenyl)-5-(methylsulfonamido)benzo[b]thiophene-2-carboxamide]
– | – | – | – | 0.008 µM | 0.044 µM | 0.077 µM | 0.026 µM | – | – | 0.002 µM | – | 0.007 µM | – | CCOc1cc(OC(F)(F)F)cc(C(C)(C)c2cc(Br)cc(NC(=O)c3cc4cc(NS(C)(=O)=O)ccc4s3)c2)c1 [Example 48, N-(3-bromo-5-(2-(3-ethoxy-5-(trifluoromethoxy)phenyl)propan-2-yl)phenyl)-5-(methylsulfonamido)benzo[b]thiophene-2-carboxamide]
– | – | – | – | 0.007 µM | 0.014 µM | 0.049 µM | 0.023 µM | – | – | 0.001 µM | – | 0.007 µM | – | CC(C)Oc1cc(OC(F)(F)F)cc(C(C)(C)c2cc(Br)cc(NC(=O)c3cc4cc(NS(C)(=O)=O)ccc4s3)c2)c1 [Example 49, N-(3-bromo-5-(2-(3-isopropoxy-5-(trifluoromethoxy)phenyl)propan-2-yl)phenyl)-5-(methylsulfonamido)benzo[b]thiophene-2-carboxamide]
– | – | – | – | 0.006 µM | 0.019 µM | 0.019 µM | 0.024 µM | – | – | 0.041 µM | – | 0.011 µM | – | CC(C)Oc1cc(OC(F)(F)F)cc(C(C)(C)c2cc(Cl)cc(NC(=O)c3cc4cc(NS(C)(=O)=O)ccc4s3)c2)c1 [Example 68, N-(3-chloro-5-(2-(3-isopropoxy-5-(trifluoromethoxy)phenyl)propan-2-yl)phenyl)-5-(methylsulfonamido)benzo[b]thiophene-2-carboxamide]
